How the values were obtained:
Type in all cases: in vivo
[1] = tested on: galium (catchweed bedstraw, Galium aparine); assay: Test D pre-/postemergence plant response
Procedure, shortened: (§1)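 Seeds were planted in a loam and sand blend and sprayed preemergence. In parallel, seedlings grown in peat moss/vermiculite medium were sprayed postemergence at 2 to 18 cm height. Both used a surfactant-containing non-phytotoxic solvent. Greenhouse ratings at 13 to 15 days used a 0–100 control scale.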

corn (Zea mays) = assay: Test D pre-/postemergence plant response
Procedure, shortened: as §1

[2] = tested on: Italian ryegrass (Lolium multiflorum); assay: Test D pre-/postemergence plant response
Procedure, shortened: as §1

[3] = tested on: oilseed rape (Brassica napus); assay: Test D pre-/postemergence plant response
Procedure, shortened: as §1

[4] = tested on: winter wheat (Triticum aestivum); assay: Test D pre-/postemergence plant response
Procedure, shortened: as §1

[5] = tested on: velvetleaf (Abutilon theophrasti); assay: Test D pre-/postemergence plant response
Procedure, shortened: as §1

[6] = tested on: lambsquarters (Chenopodium album); assay: Test D pre-/postemergence plant response
Procedure, shortened: as §1

[7] = tested on: barnyardgrass (Echinochloa crus-galli); assay: Test C flooded paddy test plant response; details: Flood, 250 g ai/ha; scale of 0 to 100 where 0 is no effect and 100 is complete control; 13 to 15 days
Procedure, shortened: (§2)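 Greenhouse paddy assay, 13–15 days. Treatment into 3 cm floodwater over 2-leaf plants; visual 0–100 rating against controls.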

[8] = tested on: ducksalad (Heteranthera limosa); assay: Test C flooded paddy test plant response; details: Flood, 250 g ai/ha; scale of 0 to 100 where 0 is no effect and 100 is complete control; 13 to 15 days
Procedure, shortened: as §2

rice (Oryza sativa) = assay: Test C flooded paddy test plant response; details: Flood, 250 g ai/ha; scale of 0 to 100 where 0 is no effect and 100 is complete control; 13 to 15 days
Procedure, shortened: as §2

[9] = tested on: small-flower umbrella sedge (Cyperus difformis); assay: Test C flooded paddy test plant response; details: Flood, 250 g ai/ha; scale of 0 to 100 where 0 is no effect and 100 is complete control; 13 to 15 days
Procedure, shortened: as §2

kochia (Kochia scoparia) = assay: Test B pre-/postemergence plant response
Procedure, shortened: (§3)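 Scoring used a 0–100 scale (100 = complete control) by visual comparison with untreated plants after approximately 10 days in the greenhouse. Compounds, in surfactant-containing non-phytotoxic solvent, were sprayed onto soil at planting or onto 2–10 cm seedlings.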

[10] = tested on: Italian ryegrass (Lolium multiflorum); assay: Test B pre-/postemergence plant response
Procedure, shortened: as §3

[11] = tested on: ragweed (common ragweed, Ambrosia elatior); assay: Test B pre-/postemergence plant response
Procedure, shortened: as §3

[12] = Postemergence, 16 g ai/ha, scale 0 to 100 (0 no effect, 100 complete control)
[13] = Postemergence, 31 g ai/ha, scale 0 to 100 (0 no effect, 100 complete control)
[14] = Postemergence, 62 g ai/ha, scale 0 to 100, 0 no effect, 100 complete control
[15] = Postemergence, 125 g ai/ha, scale 0 to 100, 0 no effect, 100 complete control
[16] = 31 g ai/ha, Postemergence, 0 to 100 scale, 0 no effect, 100 complete control
[17] = 31 g ai/ha, Preemergence, 0 to 100 scale where 0 is no effect and 100 is complete control
[18] = 125 g ai/ha, postemergence, 0 to 100 scale, 0 no effect, 100 complete control
[19] = Preemergence, 125 g ai/ha, 0 to 100 scale where 0 is no effect and 100 is complete control
[20] = Preemergence, 16 g ai/ha, scale 0 to 100 (0 no effect, 100 complete control)
[21] = Preemergence, 31 g ai/ha, scale 0 to 100 (0 no effect, 100 complete control)
[22] = Preemergence, 62 g ai/ha, scale 0 to 100 (0 no effect, 100 complete control)

In the case of `FC(Cl)c1cc(-c2ccccc2Oc2ncc(Cl)cn2)no1` (stereo not shown) [Compound 116], the “Galium plant response rating” value [1, 12] is reported as 60, the “Galium plant response rating” value [1, 13] is reported as 60 and the “Plant response rating, Galium” value [1, 14] is reported as 70. The “Plant response rating, Galium” value [1, 15] was 90, the “Corn plant response rating” value (corn (Zea mays); [12]) was 5 and the “Corn plant response rating” value (corn (Zea mays); [13]) was 10. For the same molecule, the “Plant response rating, Corn” value (corn (Zea mays); [14]) was 5, the “Plant response rating, Corn” value (corn (Zea mays); [15]) was 10 and the “Ryegrass, Italian plant response rating” value [2, 12] was 0. The “Ryegrass, Italian plant response rating” value [2, 13] was 0, the “Plant response rating, Ryegrass, Italian” value [2, 14] was 5 and the “Plant response rating, Ryegrass, Italian” value [2, 15] was 10. The “Oilseed Rape plant response rating” value [3, 12] was 50, the “Oilseed Rape plant response rating” value [3, 13] was 10 and the “Plant response rating, Oilseed Rape” value [3, 14] was 55. For the same molecule, the “Plant response rating, Oilseed Rape” value [3, 15] was 70, the “Wheat plant response rating” value [4, 12] was 70 and the “Wheat plant response rating” value [4, 13] was 0. The “Plant response rating, Wheat” value [4, 14] was 5, the “Plant response rating, Wheat” value [4, 15] was 5 and the “Velvetleaf plant response rating” value [5, 12] was 55. For the same molecule, the “Velvetleaf plant response rating” value [5, 13] was 65, the “Plant response rating, Velvetleaf” value [5, 14] was 70 and the “Plant response rating, Velvetleaf” value [5, 15] was 75. The “Lambsquarters plant response rating” value [6, 12] was 40, the “Lambsquarters plant response rating” value [6, 13] was 60 and the “Plant response rating, Lambsquarters” value [6, 14] was 80. The “Plant response rating, Lambsquarters” value [6, 15] was 100, the “Barnyardgrass plant response rating” value [7] was 0 and the “Ducksalad plant response rating” value [8] was 95. For the same molecule, the “Rice plant response rating” value (rice (Oryza sativa)) was 30, the “Sedge, Umbrella plant response rating” value [9] was 90 and the “Plant response rating, Kochia” value (kochia (Kochia scoparia); [16]) was 90. The “Plant response rating, Kochia” value (kochia (Kochia scoparia); [17]) was 60, the “Plant response rating, Kochia” value (kochia (Kochia scoparia); [18]) was 90 and the “Plant response rating, Kochia” value (kochia (Kochia scoparia); [19]) was 60. For the same molecule, the “Plant response rating, Ryegrass, Italian” value [10, 16] was 0, the “Plant response rating, Ryegrass, Italian” value [10, 17] was 0 and the “Plant response rating, Ryegrass, Italian” value [10, 18] was 30. For the same molecule, the “Plant response rating, Ragweed” value [11, 16] was 20, the “Plant response rating, Ragweed” value [11, 17] was 0 and the “Plant response rating, Ragweed” value [11, 18] was 40.

For `Fc1cccc(Oc2ncc(Br)cn2)c1-c1cc(C(F)F)on1` [Compound 118], the “Galium plant response rating” value [1, 12] was 85, the “Galium plant response rating” value [1, 13] was 90 and the “Plant response rating, Galium” value [1, 14] was 90. For the same molecule, the “Plant response rating, Galium” value [1, 15] was 98, the “Plant response rating (scale 0 to 100), Galium” value ([1]; Preemergence, 125 g ai/ha) was 95 and the “Plant response rating, Galium” value [1, 20] was 60. The “Plant response rating, Galium” value [1, 21] was 98, the “Plant response rating, Galium” value [1, 22] was 95 and the “Corn plant response rating” value (corn (Zea mays); [12]) was 5. The “Corn plant response rating” value (corn (Zea mays); [13]) was 10, the “Plant response rating, Corn” value (corn (Zea mays); [14]) was 15 and the “Plant response rating, Corn” value (corn (Zea mays); [15]) was 15. For the same molecule, the “Plant response rating (scale 0 to 100), Corn” value (corn (Zea mays); Preemergence, 125 g ai/ha) was 30, the “Plant response rating, Corn” value (corn (Zea mays); [20]) was 0 and the “Plant response rating, Corn” value (corn (Zea mays); [21]) was 5. For the same molecule, the “Plant response rating, Corn” value (corn (Zea mays); [22]) was 30, the “Ryegrass, Italian plant response rating” value [2, 12] was 0 and the “Ryegrass, Italian plant response rating” value [2, 13] was 0. The “Plant response rating, Ryegrass, Italian” value [2, 14] was 5, the “Plant response rating, Ryegrass, Italian” value [2, 15] was 5 and the “Plant response rating (scale 0 to 100), Ryegrass, Italian” value ([2]; Preemergence, 125 g ai/ha) was 60. For the same molecule, the “Plant response rating, Ryegrass, Italian” value [2, 20] was 0, the “Plant response rating, Ryegrass, Italian” value [2, 21] was 5 and the “Plant response rating, Ryegrass, Italian” value [2, 22] was 65. For the same molecule, the “Oilseed Rape plant response rating” value [3, 12] was 5, the “Oilseed Rape plant response rating” value [3, 13] was 30 and the “Plant response rating, Oilseed Rape” value [3, 14] was 60. For the same molecule, the “Plant response rating, Oilseed Rape” value [3, 15] was 95, the “Plant response rating (scale 0 to 100), Oilseed Rape” value ([3]; Preemergence, 125 g ai/ha) was 100 and the “Plant response rating, Oilseed Rape” value [3, 20] was 85. For the same molecule, the “Plant response rating, Oilseed Rape” value [3, 21] was 98, the “Plant response rating, Oilseed Rape” value [3, 22] was 100 and the “Wheat plant response rating” value [4, 12] was 0. For the same molecule, the “Wheat plant response rating” value [4, 13] was 0, the “Plant response rating, Wheat” value [4, 14] was 0 and the “Plant response rating, Wheat” value [4, 15] was 5. For the same molecule, the “Plant response rating (scale 0 to 100), Wheat” value ([4]; Preemergence, 125 g ai/ha) was 5, the “Plant response rating, Wheat” value [4, 20] was 0 and the “Plant response rating, Wheat” value [4, 21] was 0. The “Plant response rating, Wheat” value [4, 22] was 0, the “Velvetleaf plant response rating” value [5, 12] was 65 and the “Velvetleaf plant response rating” value [5, 13] was 75. For the same molecule, the “Plant response rating, Velvetleaf” value [5, 14] was 70, the “Plant response rating, Velvetleaf” value [5, 15] was 85 and the “Plant response rating (scale 0 to 100), Velvetleaf” value ([5]; Preemergence, 125 g ai/ha) was 100. The “Plant response rating, Velvetleaf” value [5, 20] was 80, the “Plant response rating, Velvetleaf” value [5, 21] was 70 and the “Plant response rating, Velvetleaf” value [5, 22] was 100. The “Lambsquarters plant response rating” value [6, 12] was 75, the “Lambsquarters plant response rating” value [6, 13] was 85 and the “Plant response rating, Lambsquarters” value [6, 14] was 90. The “Plant response rating, Lambsquarters” value [6, 15] was 95, the “Plant response rating (scale 0 to 100), Lambsquarters” value ([6]; Preemergence, 125 g ai/ha) was 98 and the “Plant response rating, Lambsquarters” value [6, 20] was 90. For the same molecule, the “Plant response rating, Lambsquarters” value [6, 21] was 90, the “Plant response rating, Lambsquarters” value [6, 22] was 95 and the “Barnyardgrass plant response rating” value [7] was 50. The “Ducksalad plant response rating” value [8] was 100, the “Rice plant response rating” value (rice (Oryza sativa)) was 45 and the “Sedge, Umbrella plant response rating” value [9] was 100. The “Plant response rating, Kochia” value (kochia (Kochia scoparia); [16]) was 100, the “Plant response rating, Kochia” value (kochia (Kochia scoparia); [17]) was 80 and the “Plant response rating, Kochia” value (kochia (Kochia scoparia); [18]) was 100. For the same molecule, the “Plant response rating, Kochia” value (kochia (Kochia scoparia); [19]) was 100, the “Plant response rating, Ryegrass, Italian” value [10, 16] was 20 and the “Plant response rating, Ryegrass, Italian” value [10, 17] was 20. The “Plant response rating, Ryegrass, Italian” value [10, 18] was 80, the “Plant response rating, Ragweed” value [11, 16] was 30 and the “Plant response rating, Ragweed” value [11, 17] was 20. The “Plant response rating, Ragweed” value [11, 18] was 50.
